Source: ChEMBL document CHEMBL3352458, “Discovery of dual death-associated protein related apoptosis inducing protein kinase 1 and 2 inhibitors by a scaffold hopping approach” (J Med Chem, 2014)
pIC50, pKd: −log10 of the molar value.

Columns and labels:
[1] = target: T1, Serine/threonine-protein kinase 17B (Homo sapiens, UniProt O94768); experiment: Binding affinity to DRAK2 (unknown origin) ATP site
T1 sequence (O94768 whole entry): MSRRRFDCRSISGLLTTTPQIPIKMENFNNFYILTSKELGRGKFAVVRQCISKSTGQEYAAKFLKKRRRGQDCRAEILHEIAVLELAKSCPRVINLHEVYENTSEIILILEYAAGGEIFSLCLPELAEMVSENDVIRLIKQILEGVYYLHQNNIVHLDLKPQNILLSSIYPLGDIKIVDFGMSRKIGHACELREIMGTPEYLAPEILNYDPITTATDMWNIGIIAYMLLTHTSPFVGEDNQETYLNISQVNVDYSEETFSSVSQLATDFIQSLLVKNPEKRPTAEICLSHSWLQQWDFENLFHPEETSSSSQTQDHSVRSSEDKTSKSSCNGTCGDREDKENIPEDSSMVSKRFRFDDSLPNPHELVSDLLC

[2] = target: T1, Serine/threonine-protein kinase 17B; experiment: Inhibition of DRAK2 (unknown origin) using 5 uM ATP by biochemical assay
[3] = target: T1, Serine/threonine-protein kinase 17B; experiment: Inhibition of DRAK2 (unknown origin) using 100 uM ATP by biochemical assay
[4] = target: T1, Serine/threonine-protein kinase 17B; experiment: Inhibition of DRAK2 (unknown origin) using 1 uM ATP by biochemical assay
[5] = target: T1, Serine/threonine-protein kinase 17B; experiment: Inhibition of DRAK2 (unknown origin) using 10 uM ATP by biochemical assay
[6] = target: T1, Serine/threonine-protein kinase 17B; experiment: Inhibition of DRAK2 (unknown origin) using 500 uM ATP by biochemical assay
[7] = target: T1, Serine/threonine-protein kinase 17B; experiment: Inhibition of DRAK2 (unknown origin) using 250 uM ATP by biochemical assay
[8] = target: T1, Serine/threonine-protein kinase 17B; experiment: Inhibition of DRAK2 (unknown origin) using 50 uM ATP by biochemical assay
[9] = target: T1, Serine/threonine-protein kinase 17B; experiment: Inhibition of DRAK2 (unknown origin) using 25 uM ATP by biochemical assay
[10] = target: T1, Serine/threonine-protein kinase 17B; experiment: Inhibition of DRAK2 (unknown origin) using 33P-ATP after 30 mins by Trilux scintillation counting

SMILES	pKd [1]	further results
COc1cc(-c2cnc3snc(NC(=O)C4CCCCC4)c3c2)ccc1O	5.70	
COc1cc(-c2cnc3snc(NC(=O)C4CCCCC4)c3c2)ccc1N	6.18	
Nc1cccc(-c2cnc3snc(NC(=O)C4CCCCC4)c3c2)c1	5.64	
O=C(Nc1nsc2ncc(-c3ccc(O)cc3)cc12)C1CCCCC1	5.49	
COc1ccc(-c2cnc3snc(NC(=O)C4CCCCC4)c3c2)cc1OC	5.80	
O=C(Nc1nsc2ncc(-c3cccs3)cc12)C1CCCCC1	5.72	
O=C(Nc1nsc2ncc(-c3ccsc3)cc12)C1CCCCC1	5.80	
COc1ccc(-c2cnc3snc(NC(=O)C4CCC4)c3c2)cc1OC	5.80	
COc1ccc(-c2cnc3snc(NC(=O)C4CCCC4)c3c2)cc1OC	5.66	
COc1ccc(-c2cnc3snc(NC(=O)C4CCCCCC4)c3c2)cc1OC	6.28	
COc1ccc(-c2cnc3snc(NC(=O)C4CCNCC4)c3c2)cc1OC	5.14	
COc1ccc(-c2ccc3scc(NC(=O)C4CCCCC4)c3c2)cc1OC	6.29	
COc1ccc(-c2cnc3scc(NC(=O)C4CCCCC4)c3c2)cc1OC	8.05	pIC50 [2]: 6.29; pIC50 [3]: 6.00; pIC50 [4]: 6.43; pIC50 [5]: 6.28; pIC50 [6]: 5.65; pIC50 [7]: 5.83; pIC50 [8]: 6.14; pIC50 [9]: 6.19; pIC50 [10]: 6.07
COc1ccc(-c2cnc3scc(NC(=O)C4CCCCC4)c3n2)cc1OC	7.57	pIC50 [10]: 5.75
COc1ccc(-c2cnc3[nH]cc(NC(=O)C4CCCCC4)c3c2)cc1OC	7.48	
COc1ccc(-c2ccc3snc(NC(=O)C4CCCCC4)c3c2)cc1OC	5.57	
COc1ccc(-c2ccc3onc(NC(=O)C4CCCCC4)c3c2)cc1OC	6.02	
COc1ccc(-c2cnc3ncnc(NC(=O)C4CCCCC4)c3n2)cc1OC	6.74	
